Measurements taken from patent US5342604A (The Dow Chemical Company, priority 1992, dated 1994).
Where a name gives a salt, the structure may show the parent alone. Read-outs that look alike come from different tables or passages of the source. One block for each compound: values may come before it.

Tests used:
[1] = In vivo screening of bifunctional chelates: biodistribution, percent injected dose in liver; details: rat, i.v. tail vein, 2 hours
Procedure: (§3) Also samarium was injected as samarium chloride in unchelated form.
(§4) Sprague-Dawley rats weighing from 150 to 200 g were purchased from Charles River Laboratories. These animals were placed in cages and fed water and food ad libitum. The animals were acclimated for at least five days before use. Prior to injection of complex, the animals were placed under a heat lamp (15 to 30 minutes) to dilate the tail vein. Then, the animal was placed in a restraining cage, the tail cleaned with an alcohol swipe, and the animal injected (50 to 200 μl) via the tail vein. After injection, the animal was placed in another cage for two hours after which time the animal was sacrificed by cervical dislocation. The animal was then dissected, the parts rinsed with deionized H2 O, patted dry, and weighed into a tared counting vial. Whatever size of injection was made, at least three standards of the same material were prepared and counted with the animal parts.

[2] = Percent complex determination, samarium complexes (Sephadex C-25 cation exchange); type: physicochemical
Procedure: (§1) A disposable 10 ml plastic (Biorad) column was filled with 1 to 2 ml of water-swelled Sephadex™ C-25 cation exchange resin. The water was pressure eluted to the top of the resin. Fifteen μl of the complex (or more if counts were low) were added to the top of the resin. This was followed by 2 ml of 4:1 (V:V) isotonic saline:conc. ammonium hydroxide solution as an eluent which was allowed to drip into a counting tube. This was also pressure eluted to the top of the resin. An additional 2 ml of the eluent were added and the column pressure eluted to remove all liquid. The dried resin was then placed in a third counting tube and the three tubes counted on a NaI well counter using a Canberra multichannel analyzer linked to a computer. The percent complex was determined by dividing the number of counts in the two elutions by the total counts in the elutions plus the column, all times 100.
Samarium complexes were formed as described previously for yttrium complexes except that 0.0003M samarium was prepared by dissolution of Sm2 03 (348.7 g mole) in 0.1M hydrochloric acid. […] Percent complex determination was made in the same manner as for the yttrium complex.

[3] = Inertness of samarium complex to pH change; type: physicochemical
Procedure: as §1, with “100. By this method, uncomplexed yttrium was retained on the column.” for “100.”
(§2) One portion was treated with 1-2 μl portions of 0.1N hydrochloric acid until the pH was lowered and the other portion was treated with 0.1N sodium hydroxide to bring the pH up. The complexes were allowed to set for 5-10 minutes at each pH change, then they were sampled to determine the percent complexation at that pH by the method described for Examples 16 through 33.
as §2, with “1-2 μportions” for “1-2 μl portions”, “of 1.0N” for “of 0.1N”, “with 0.1N, 1.0N and 50 weight %” for “with 0.1N”, “for about 5” for “for 5-10”

[4] = Percent complex determination, yttrium complexes (Sephadex C-25 cation exchange); type: physicochemical; details: Y
Procedure: The yttrium and/or samarium complexes of several of the compounds were prepared and percent complexation determined as follows:
Complexes were made by preparing a 0.0003M yttrium solution in water. (YCl3 ·6H2 O, 303.26 g/mole; Y(OAc)3, 12.1% H2 0). Radioactive YCl3 (Oakridge National Laboratories) was added to give the desired number of counts. Ten μl of ligand solution (at 0.03M) were added to 990 μl of the Y solution, giving a ligand-to-metal ratio of 1:1. (Ten times the amount of ligand solution was used for a 10:1 ligand to metal ratio.) The pH was then adjusted to 7.4 using microliter quantities of hydrochloric acid or sodium hydroxide. The solution was then tested for the amount of complexed yttrium using the cation exchange method given below.
as §1, with “100. By this method, uncomplexed yttrium was retained on the column.” for “100.”

[5] = rat, in vivo, 120 min
Procedure: Complexes were prepared by mixing a solution of ligand and metal then adjusting the pH to 7-8. The amount of metal that was complexed to ligand was determined by cation exchange chromatography. Free metal was retained by the resin, metal in the form of a complex was not.
One-hundred μl of the complexes were injected into the tail vein of three Sprague Dawley rats. Two hours after injection, the rats were killed by cervical dislocation and samples of tissues were taken. The tissues were weighed and the amount of radiation in each tissue determined by measuring the number of counts using a NaI well counter and comparing them to standards. […] The amount in bone was 25 times the % dose in a femur. […] Non-radioactive metal was used to obtain the desired ligand to metal ratios and tracer radioactive metal was used to obtain the biodistribution.

[6] = rat, in vivo, iv, 120 min
Procedure: as §3, §4

[7] = Lability of yttrium complexes on addition of excess metal; type: physicochemical; details: Y
Procedure: as §1, with “100. By this method, uncomplexed yttrium was retained on the column.” for “100.”
The 1:1 complex of yttrium with 1-(p-aminobenzyl)diethylenetriaminepentaacetic acid (ABDTPA), a well known bifunctional chelant used in the literature, and with the ligand of Example 2 (Now Ex. XVI) and Example 12 (now Ex. XVII) were prepared using the techniques described earlier. Several 100 microliter aliquots were then withdrawn into separate centrifuge tubes. Excess metal was added such that the total volume change is minimized and the time noted. One-half hour after metal addition, the percent complex was determined by the Sephadex™ C-25 method and this was compared to the original amount of complex. The percent complex versus added metal gives an indication as to the lability of the ligand-metal complex. Results are given below and are compared to the EDTA-yttrium complex.

[8] = Sm, ligand/metal ratio about 50:1
[9] = Sm, ligand/metal ratio not stated

Compound: 2-[(2-[(2-[(2-{[BIS(CARBOXYMETHYL)]AMINO}ETHYL) (CARBOXYMETHYL)AMINO]ETHYL) (CARBOXYMETHYL)AMINO]ETHYL)(CARBOXYMETHYL)AMINO]-2-[5-ACETAMIDO2-(CARBOXYMETHYLOXY) PHENYL]ETHANOIC ACID AND 2[(2-[(2-{[BIS(CARBOXYMETHYL)]AMINO}ETHYL)(CARBOXYMETHYL) AMINO]ETHYL)(2-{[BIS(CARBOXYMETHYL)]AMINO}ETHYL)AMINO]-2-[5-ACETAMIDO-2-(CARBOXYMETHYLOXY) PHENYL]ETHANOIC ACID [Example 9]
- % Injected Dose in Liver ([1]; Sm, ligand/metal 10:1): 2.8%
- % Complex ([2]; Sm, ligand/metal 10:1): > 99%

Compound: 2-[BIS(2-{[(BIS(CARBOXYMETHYL)] AMINO}ETHYL)AMINO]-2-[5-AMINO-2-(CARBOXYMETHYLOXY) PHENYL]ETHANOIC ACID AND 2-[{2-[(2{[BIS(CARBOXYMETHYL)]AMINO}ETHYL) (CARBOXYMETHYL)AMINO]ETHYL}(CARBOXYMETHYL)AMINO]-2-[5-AMINO-2-(CARBOXYMETHYLOXY)PHENYL]ETHANOIC ACID, SAMARIUM COMPLEX [XXII]
- percent Sm that was complexed ([2]; about pH 7.5, Example XXII): 100%
- % Complexed ([3]; Table V, pH 1, 5-10 minutes): 98%
- % Complexed ([3]; Table V, pH 2, 5-10 minutes): 100%
- % Complexed ([3]; Table V, pH 3, 5-10 minutes): 100%
- % Complexed ([3]; Table V, pH 4, 5-10 minutes): 100%
- % Complexed ([3]; Table V, pH 5, 5-10 minutes): 100%
- % Complexed ([3]; Table V, pH 7, 5-10 minutes): 100%
- % Complexed ([3]; Table V, pH 9, 5-10 minutes): 100%
- % Complexed ([3]; Table V, pH 11, 5-10 minutes): 100%
- % Complexed ([3]; Table V, pH 13, 5-10 minutes): 100%

Compound: 2-[BIS(2-{[(BIS(CARBOXYMETHYL)]AMINO}ETHYL) AMINO]-2-[5-AMINO-2-(CARBOXYMETHYLOXY)PHENYL]ETHANOIC ACID AND 2-[{2-[(2-{[BIS(CARBOXYMETHYL)]AMINO}ETHYL)(CARBOXYMETHYL)AMINO]ETHYL} (CARBOXYMETHYL)AMINO]-2-[5-AMINO-2-(CARBOXYMETHYLOXY)PHENYL]ETHANOIC ACID [Example 7]
- % Complex [2, 8]: 96%

Compound: 2-[bis(2-{[(bis(carboxymethyl)]amino}ethyl) amino]-2-[5-acetamido-2-(carboxymethyloxy)phenyl]ethanoic acid and 2-[{2-[(2-{[bis(carboxymethyl)]amino}ethyl)(carboxymethyl)amino]ethyl} (carboxymethyl)amino]-2-[5-acetamido-2-(carboxymethyloxy)phenyl]ethanoic acid [Example 6]
- % Injected Dose in Liver ([1]; Sm, ligand/metal 10:1): 0.38%
- % Complex ([2]; Sm, ligand/metal 10:1): > 99%

Compound: CC(=O)Nc1ccc(O)c(C(NCCN(CC(=O)O)CC(=O)O)C(=O)O)c1 (stereo not shown) [Example 1, 2-[(2-{[bis(carboxymethyl)]amino}ethyl)amino]-2-(5-acetamido-2-hydroxyphenyl)ethanoic acid]
- % Complex ([4]; ligand/metal 10:1): 98%
- biodistribution, blood (% dose) [5]: 0.57%
- biodistribution, bone (% dose) [5]: 56.1%
- biodistribution, liver (% dose) [5]: 0.87%
- biodistribution, muscle (% dose) [5]: 0.78%
- biodistribution, spleen (% dose) [5]: 0.03%
- % Injected Dose in Liver [6]: 0.87%

Compound: CC(=O)Nc1ccc(OCC(=O)O)c(C(C(=O)O)N(CCN(CC(=O)O)CC(=O)O)CC(=O)O)c1 (stereo not shown) [Example 2, 2-[(2-{[bis(carboxymethyl)]amino}ethyl) (carboxymethyl)amino]-2-[5-acetamido-2-(carboxymethyloxy)phenyl]ethanoic acid]
- % Complex ([4]; ligand/metal 10:1): > 99%
- % Complex ([2]; Sm, ligand/metal 10:1): > 99%
- % Complex ([7]; Metal/Ligand Molar Ratio 1): 99%
- % Complex ([7]; Metal/Ligand Molar Ratio 10, one-half hour after metal addition): 94%
- % Complex ([7]; Metal/Ligand Molar Ratio 100, one-half hour after metal addition): 84%
- % Complex ([7]; Metal/Ligand Molar Ratio 500, one-half hour after metal addition): 75%
- % Injected Dose in Liver [6]: 0.22%

Compound: Nc1ccc(OCC(=O)O)c(C(C(=O)O)N(CCN(CC(=O)O)CC(=O)O)CC(=O)O)c1 (stereo not shown) [Example 3, 2-[(2-{[BIS(CARBOXYMETHYL)]AMINO}ETHYL) (CARBOXYMETHYL)AMINO]-2-[5-AMINO-2-(CARBOXYMETHYLOXY)PHENYL]ETHANOIC ACID, PENTA SODIUM SALT]
- % Complex ([4]; ligand/metal 10:1): > 99%
- % Injected Dose in Liver [6]: 0.22%

Compound: CC(=O)Nc1ccc(O)c(CN(CCN(CC(=O)O)Cc2cc(NC(C)=O)ccc2O)CC(=O)O)c1 [Example U, N,N'-DI(2-HYDROXY, 5-ACETAMIDOBENZYL)ETHYLENEDIAMINE-N,N'-DIACETIC ACID, reference compound]
- % Injected Dose in Liver [1, 9]: 12%

Compound: Nc1ccc(O)c(C(NCCNC(C(=O)O)c2cc(N)ccc2O)C(=O)O)c1 (stereo not shown) [Example X, […][(2-HYDROXY-5AMINOPHENYL)ACETIC ACID], reference compound]
- % Injected Dose in Liver [1, 9]: 24%

Compound: [Cl][Sm]([Cl])[Cl] [SmCl3, samarium chloride, reference compound]
- % Injected Dose in Liver ([1]; Sm injected as samarium chloride in unchelated form): 39%

More lines, now with the values ahead:

- percent complexation ([2]; Sm, pH about 7, Example XXIII): 96%
- % Complexed ([3]; Table VI, pH 1, about 5 minutes): 91%
- % Complexed ([3]; Table VI, pH 2, about 5 minutes): 88%
- % Complexed ([3]; Table VI, pH 3, about 5 minutes): 92%
- % Complexed ([3]; Table VI, pH 5, about 5 minutes): 96%
- % Complexed ([3]; Table VI, pH 7, about 5 minutes): 96%
- % Complexed ([3]; Table VI, pH 9, about 5 minutes): 99%
- % Complexed ([3]; Table VI, pH 12, about 5 minutes): 98%
- % Complexed ([3]; Table VI, pH 13, about 5 minutes): 99%
Compound: 2-[{2-[(2{[B IS(CARBOXYMETHYL)]AMINO}ETHYL) (CARBOXYMETHYL) AMINO]ETHYL} (CARBOXYMETHYL) AMINO]-2-[5-AMINO-2-(CARBOXYMETHYLOXY)PHENYL]ETHANOIC ACID, SAMARIUM COMPLEX [XXIII]

- % Complex ([4]; ligand/metal 10:1): > 99%
- % Injected Dose in Liver [6]: 1.4%
Compound: CC(=O)Nc1ccc(O)c(C(C(=O)O)N(CC#N)CCN(CC(=O)O)CC(=O)O)c1 (stereo not shown) [Example 4, 2-[(2-{[bis(carboxymethyl)]amino}ethyl) (cyanomethyl)amino]-2-(5-acetamido-2-hydroxyphenyl)ethanoic acid]

- % Complex ([4]; ligand/metal 10:1): 99%
- % Injected Dose in Liver [6]: 0.38%
Compound: Nc1ccc(O)c(C(C(=O)O)N(CCN(CC(=O)O)CC(=O)O)CC(=O)O)c1 (stereo not shown) [Example 5, 2-[(2-{[BIS(CARBOXYMETHYL)]-AMINO}ETHYL) (CARBOXYMETHYL)AMINO]-2-(5-AMINO-2HYDROXYPHENYL)ETHANOIC ACID]

- % Complex [2, 8]: > 99%
Compound: Nc1ccc(OCC(=O)O)c(C(C(=O)O)N(CCN(CCN(CC(=O)O)CC(=O)O)CC(=O)O)CC(=O)O)c1 (stereo not shown) [Example 8, 2-[{2-[(2-{[BIS(CARBOXYMETHYL)]-AMINO}ETHYL) (CARBOXYMETHYL) AMINO]ETHYL}(CARBOXYMETHYL)AMINO ]-2-[5-AMINO-2- CARBOXYMETHYLOXY)PHENYL]ETHANOIC ACID]

- % Complex ([4]; ligand/metal 10:1): 99%
- % Complex ([4]; ligand/metal ratio about 1:1): 98%
Compound: CC(=O)Nc1cc(CN(CCN(CC(=O)O)CC(=O)O)CC(=O)O)c(O)c(CN(CCN(CC(=O)O)CC(=O)O)CC(=O)O)c1 [Example 11]

- % Complex ([4]; ligand/metal 10:1): 99%
- % Injected Dose in Liver [6]: 0.37%
Compound: CC(=O)Nc1cc(CN(CCN(CC(=O)O)CC(=O)O)CC(=O)O)c(O)c(CN(CC(=O)O)CC(=O)O)c1 [Example 15, 2-({[BIS(CARBOXYMETHYL)]AMINO}METHYL)-6-{[({[BIS(CARBOXYMETHYL)]AMINO}ETHYL)((CARBOXYMETHYL)AMINO]METHYL}-4-(ACETAMIDO)PHENOL]
